Data from patent US11427567B2, “Imidazolyl pyrimidinylamine compounds as CDK2 inhibitors” (Incyte Corporation, priority 2019, dated 2022).

Biological target: CDK2/Cyclin E1 (Homo sapiens (Human), UniProt P24941)
Test: CDK2/Cyclin E1 HTRF enzyme activity assay (Example A)
Assay type: biochemical
Conditions: 1 mM ATP
Method: Assays were conducted in white 384-well polystyrene plates in a final reaction volume of 8 μL. […] HTRF signals were read after 1 hour at room temperature on a PHERAstar FS plate reader (BMG Labtech). Data was analyzed with IDBS XLFit and GraphPad Prism 5.0 software using a three or four parameter dose response curve to determine IC50 for each compound.

Row | SMILES | IC50
1 | CN(C)Cc1ccc(-n2cnc(-c3nc(NC4CCN(S(C)(=O)=O)CC4)ncc3C(F)(F)F)c2)c(C(F)(F)F)n1 [Example 246, 4-(1-(6-((Dimethylamino)methyl)-2-(trifluoromethyl)pyridin-3-yl)-1H-imidazol-4-yl)-N-(1-(methylsulfonyl)piperidin-4-yl)-5-(trifluoromethyl)pyrimidin-2-amine] | ≤ 50 nM
2 | CS(=O)(=O)N1CCC(Nc2ncc(C(F)(F)F)c(-c3cn(-c4cnccc4C#N)cn3)n2)CC1 [Example 67, 3-(4-(2-((1-(Methylsulfonyl)piperidin-4-yl)amino)-5-(trifluoromethyl)pyrimidin-4-yl)-1H-imidazol-1-yl)isonicotinonitrile] | ≤ 50 nM
3 | CN1CCN(CCc2cccc(-n3cnc(-c4nc(NC5CCN(S(C)(=O)=O)CC5)ncc4C(F)(F)F)c3)c2Cl)CC1 [Example 464, 4-(1-(2-Chloro-3-(2-(4-methylpiperazin-1-yl)ethyl)phenyl)-1H-imidazol-4-yl)-N-(1-(methylsulfonyl)piperidin-4-yl)-5-(trifluoromethyl)pyrimidin-2-amine] | ≤ 50 nM
4 | Cc1nc(-c2nc(NC3CCN(S(C)(=O)=O)CC3)ncc2C(F)(F)F)cn1C [Example 19, 4-(1,2-Dimethyl-1H-imidazol-4-yl)-N-(1-(methylsulfonyl)piperidin-4-yl)-5-(trifluoromethyl)pyrimidin-2-amine] | 50 to 200 nM
5 | CS(=O)(=O)N1CCC(Nc2ncc(C(F)(F)F)c(-c3cn(-c4ccc(Cn5nccn5)cc4Cl)cn3)n2)CC1 [Example 241, 4-(1-(4-((2H-1,2,3-Triazol-2-yl)methyl)-2-chlorophenyl)-1H-imidazol-4-yl)-N-(1-(methylsulfonyl)piperidin-4-yl)-5-(trifluoromethyl)pyrimidin-2-amine] | ≤ 50 nM

Results, then the molecule that gave them:

Row | IC50 | SMILES
6 | ≤ 50 nM | C[C@]1(O)CCN(Cc2ccc(-n3cnc(-c4nc(N[C@@H]5CCN(S(C)(=O)=O)C[C@H]5F)ncc4C(F)(F)F)c3)c(Cl)c2)C1 [Example 410, (S)-1-(3-Chloro-4-(4-(2-(((3R,4R)-3-fluoro-1-(methylsulfonyl)piperidin-4-yl)amino)-5-(trifluoromethyl)pyrimidin-4-yl)-1H-imidazol-1-yl)benzyl)-3-methylpyrrolidin-3-ol]
7 | ≤ 50 nM | CS(=O)(=O)N1CCC(Nc2ncc(C(F)(F)F)c(-c3cn(-c4ccc(Cn5ccnn5)cc4Cl)cn3)n2)CC1 [Example 242, 4-(1-(4-((1H-1,2,3-Triazol-1-yl)methyl)-2-chlorophenyl)-1H-imidazol-4-yl)-N-(1-(methylsulfonyl)piperidin-4-yl)-5-(trifluoromethyl)pyrimidin-2-amine]
8 | ≤ 50 nM | CNCc1ccc(-n2cnc(-c3nc(NC4CCN(S(C)(=O)=O)CC4)ncc3C(F)(F)F)c2)c(Cl)c1 [Example 3, 4-(1-(2-Chloro-4-((methylamino)methyl)phenyl)-1H-imidazol-4-yl)-N-(1-(methylsulfonyl)piperidin-4-yl)-5-(trifluoromethyl)pyrimidin-2-amine]
9 | ≤ 50 nM | CCNCc1cc(F)c(-n2cnc(-c3nc(NC4CCN(S(C)(=O)=O)CC4)ncc3C(F)(F)F)c2)c(Cl)c1 [Example 393, 4-(1-(2-Chloro-4-((ethylamino)methyl)-6-fluorophenyl)-1H-imdazol-4-yl)-N-(1-(methylsulfonyl)piperidin-4-yl)-5-(trifluoromethyl)pyrimidin-2-amine]
10 | ≤ 50 nM | CS(=O)(=O)N1CC[C@@H](Nc2ncc(C(F)(F)F)c(-c3cn(-c4c(F)cc(CN5CCC5)cc4Cl)cn3)n2)[C@H](F)C1 [Example 404, 4-(1-(4-(Azetidin-1-ylmethyl)-2-chloro-6-fluorophenyl)-1H-imidazol-4-yl)-N-((3R,4R)-3-fluoro-1-(methylsulfonyl)piperidin-4-yl)-5-(trifluoromethyl)pyrimidin-2-amine]
11 | ≤ 50 nM | CS(=O)(=O)N1CCC(Nc2ncc(C(F)(F)F)c(-c3cn(-c4ccc(CN5CC[C@H](O)C5)cc4Cl)cn3)n2)CC1 [Example 206, (S)-1-(3 -Chloro-4-(4-(2-((1-(methyl-sulfonyl)piperidin-4-yl)amino)-5-(trifluoromethyl)-pyrimidin-4-yl)-1H-imidazol-1-yl)benzyl)-pyrrolidin-3-ol]
